# From patent publication US12077503B2, “Substituted cyclic amides and their use as herbicides” (FMC CORPORATION, priority 2015, dated 2024)
# What was measured:
# Assay type in all cases: in vivo
# Kochia (Kochia scoparia) [1] = assay: Test A preemergence; conditions: Bassia scoparia, pre-emergence, 240 h
# Procedure, shortened: (§1)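 Seeds sprayed preemergence with a directed soil spray, or plants at 2 to 10 cm height and one- to two-leaf stage sprayed postemergence, with test chemicals in a non-phytotoxic solvent mixture containing surfactant, in loam soil–sand blend. Injury rated visually against untreated controls after about 10 d in greenhouse, 0 (no effect) to 100 (complete control).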
# [2] = system: barnyardgrass (Echinochloa crus-galli); assay: Test A preemergence; conditions: Echinochloa crus-galli, pre-emergence, 240 h
# Procedure, shortened: as §1
# [3] = system: giant foxtail (Setaria faberii); assay: Test A preemergence; conditions: Setaria faberi, pre-emergence, 240 h
# Procedure, shortened: as §1
# [4] = system: pigweed (Amaranthus retroflexus); assay: Test A preemergence; conditions: Amaranthus retroflexus, pre-emergence, 240 h
# [5] = system: ragweed (common ragweed, Ambrosia elatior); assay: Test A preemergence; conditions: Ambrosia artemisiifolia, pre-emergence, 240 h
# Procedure, shortened: as §1
# [6] = system: ryegrass, Italian (Italian ryegrass, Lolium multiflorum); assay: Test A preemergence; conditions: Lolium multiflorum, pre-emergence, 240 h
# Procedure, shortened: as §1
# [7] = system: Galium (catchweed bedstraw, Galium aparine); assay: Test A postemergence; conditions: Galium, post-emergence, 240 h, read-out: Plant response rating, Galium
# Procedure, shortened: as §1
# Kochia (Kochia scoparia) [8] = assay: Test A postemergence; conditions: Bassia scoparia, post-emergence, 240 h, read-out: Plant response rating, Kochia
# Procedure, shortened: as §1
# [9] = system: barnyardgrass (Echinochloa crus-galli); assay: Test A postemergence; conditions: Echinochloa crus-galli, post-emergence, 240 h, read-out: Plant response rating, Barnyardgrass
# Procedure, shortened: as §1
# [10] = system: blackgrass (Alopecurus myosuroides); assay: Test A postemergence; conditions: Alopecurus myosuroides, post-emergence, 240 h, read-out: Plant response rating, Blackgrass
# Procedure, shortened: as §1
# corn (Zea mays) = assay: Test A postemergence; conditions: Zea mays, post-emergence, 240 h
# Procedure, shortened: as §1
# [11] = system: giant foxtail (Setaria faberii); assay: Test A postemergence; conditions: Setaria faberi, post-emergence, 240 h, read-out: Plant response rating, Foxtail, Giant
# Procedure, shortened: as §1
# [12] = system: pigweed (Amaranthus retroflexus); assay: Test A postemergence; conditions: Amaranthus retroflexus, post-emergence, 240 h, read-out: Plant response rating, Pigweed
# Procedure, shortened: as §1
# [13] = system: ragweed (common ragweed, Ambrosia elatior); assay: Test A postemergence; conditions: Ambrosia artemisiifolia, post-emergence, 240 h, read-out: Plant response rating, Ragweed
# Procedure, shortened: as §1
# [14] = system: ryegrass, Italian (Italian ryegrass, Lolium multiflorum); assay: Test A postemergence; conditions: Lolium multiflorum, post-emergence, 240 h, read-out: Plant response rating, Ryegrass, Italian
# Procedure, shortened: as §1
# [15] = system: wheat (Triticum aestivum); assay: Test A postemergence; conditions: Triticum aestivum, post-emergence, 240 h, read-out: Plant response rating, Wheat
# Procedure, shortened: as §1
# [16] = system: barnyardgrass (Echinochloa crus-galli); assay: Test B flooded paddy test; conditions: Echinochloa crus-galli, 250 g ai/ha, Flood; 0 to 100 scale where 0 is no effect and 100 is complete control; read-out: Barnyardgrass plant response rating
# Procedure, shortened: (§2)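 2-leaf plants; pots flooded 3 cm over soil; cpd added to paddy water; depth held; greenhouse 13–15 d; visual rating vs controls, 0 = no effect, 100 = complete control.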
# [17] = system: ducksalad (Heteranthera limosa); assay: Test B flooded paddy test; conditions: Heteranthera limosa, 250 g ai/ha, Flood; 0 to 100 scale where 0 is no effect and 100 is complete control; read-out: Ducksalad plant response rating
# Procedure, shortened: as §2
# rice (Oryra sativa) = assay: Test B flooded paddy test; conditions: Oryza sativa, 250 g ai/ha, Flood; 0 to 100 scale where 0 is no effect and 100 is complete control; read-out: Rice plant response rating
# Procedure, shortened: as §2
# [18] = system: sedge, umbrella (small-flower umbrella sedge, Cyperus difformis); assay: Test B flooded paddy test; conditions: Cyperus difformis, 250 g ai/ha, Flood; 0 to 100 scale where 0 is no effect and 100 is complete control; read-out: Sedge, Umbrella plant response rating
# Procedure, shortened: as §2
# [19] = 125 g ai/ha, Postemergence, visual injury after approximately 10 d, 0 to 100 scale where 0 is no effect and 100 is complete control
# [20] = 500 g ai/ha, postemergence, visual injury, 0 to 100 scale (0 no effect, 100 complete control), approx. 10 d
compound,measurement,setting,value
COc1ccc([C@H]2CN(C)C(=O)[C@@H]2C(=O)Nc2ccccc2F)cc1F [Compound 1020],pest or weed control at 125 g/ha,"Kochia (Kochia scoparia) [1]; 125 g ai/ha, Preemergence, visual injury rating after approximately 10 d, read-out: Kochia plant response rating (0 to 100 scale, 0 is no effect, 100 is complete control)",30%
same,pest or weed control at 500 g/ha,"Kochia (Kochia scoparia) [1]; 500 g ai/ha, preemergence, visual injury rating about 10 d after treatment, 0 to 100 scale (0 no effect, 100 complete control), read-out: Kochia plant response rating",20%
same,pest or weed control at 125 g/ha,"[2]; 125 g ai/ha, Preemergence, visual injury rating after approximately 10 d, read-out: Barnyardgrass plant response rating (0 to 100 scale, 0 is no effect, 100 is complete control)",90%
same,pest or weed control at 500 g/ha,"[2]; 500 g ai/ha, preemergence, visual injury rating about 10 d after treatment, 0 to 100 scale (0 no effect, 100 complete control), read-out: Barnyardgrass plant response rating",90%
same,pest or weed control at 125 g/ha,"[3]; 125 g ai/ha, Preemergence, visual injury rating after approximately 10 d, read-out: Foxtail, Giant plant response rating (0 to 100 scale, 0 is no effect, 100 is complete control)",90%
same,pest or weed control at 500 g/ha,"[3]; 500 g ai/ha, preemergence, visual injury rating about 10 d after treatment, 0 to 100 scale (0 no effect, 100 complete control), read-out: Foxtail, Giant plant response rating",90%
same,pest or weed control at 125 g/ha,"[4]; 125 g ai/ha, Preemergence, visual injury rating after approximately 10 d, read-out: Pigweed plant response rating (0 to 100 scale, 0 is no effect, 100 is complete control)",30%
same,pest or weed control at 500 g/ha,"[4]; 500 g ai/ha, preemergence, visual injury rating about 10 d after treatment, 0 to 100 scale (0 no effect, 100 complete control), read-out: Pigweed plant response rating",40%
same,pest or weed control at 125 g/ha,"[5]; 125 g ai/ha, Preemergence, visual injury rating after approximately 10 d, read-out: Ragweed plant response rating (0 to 100 scale, 0 is no effect, 100 is complete control)",0%
same,pest or weed control at 500 g/ha,"[5]; 500 g ai/ha, preemergence, visual injury rating about 10 d after treatment, 0 to 100 scale (0 no effect, 100 complete control), read-out: Ragweed plant response rating",20%
same,pest or weed control at 125 g/ha,"[6]; 125 g ai/ha, Preemergence, visual injury rating after approximately 10 d, read-out: Ryegrass, Italian plant response rating (0 to 100 scale, 0 is no effect, 100 is complete control)",0%
same,pest or weed control at 500 g/ha,"[6]; 500 g ai/ha, preemergence, visual injury rating about 10 d after treatment, 0 to 100 scale (0 no effect, 100 complete control), read-out: Ryegrass, Italian plant response rating",30%
same,pest or weed control at 125 g/ha,[7]; [19],40%
same,pest or weed control at 500 g/ha,[7]; [20],60%
same,pest or weed control at 125 g/ha,Kochia (Kochia scoparia) [8]; [19],50%
same,pest or weed control at 500 g/ha,Kochia (Kochia scoparia) [8]; [20],50%
same,pest or weed control at 125 g/ha,[9]; [19],90%
same,pest or weed control at 500 g/ha,[9]; [20],90%
same,pest or weed control at 125 g/ha,[10]; [19],0%
same,pest or weed control at 500 g/ha,[10]; [20],20%
same,"Corn plant response rating (crop injury, 0 = no effect, 100 = complete kill) at 125 g/ha",corn (Zea mays); [19],0%
same,"Corn plant response rating (crop injury, 0 = no effect, 100 = complete kill) at 500 g/ha",corn (Zea mays); [20],30%
same,pest or weed control at 125 g/ha,[11]; [19],90%
same,pest or weed control at 500 g/ha,[11]; [20],90%
same,pest or weed control at 125 g/ha,[12]; [19],30%
same,pest or weed control at 500 g/ha,[12]; [20],30%
same,pest or weed control at 125 g/ha,[13]; [19],0%
same,pest or weed control at 500 g/ha,[13]; [20],0%
same,pest or weed control at 125 g/ha,[14]; [19],30%
same,pest or weed control at 500 g/ha,[14]; [20],30%
same,plant injury at 125 g/ha,[15]; [19],0%
same,plant injury at 500 g/ha,[15]; [20],30%
same,pest or weed control at 250 g/ha,[16],75%
same,pest or weed control at 250 g/ha,[17],90%
same,pest or weed control at 250 g/ha,rice (Oryra sativa),20%
same,pest or weed control at 250 g/ha,[18],0%
